According to ChEMBL document CHEMBL3885881, “DrugMatrix”:

Species: Rattus norvegicus
Experiment: DrugMatrix - Regimen: Daily Repeat
Type: toxicity, organism-based, Sprague-Dawley
Set-up: regimen Daily Repeat, gender Male, age 6-8 weeks
Settings: in vivo, po, route oral GAVAGE, […]; for ABSOLUTE BASOPHIL / ABSOLUTE EOSINOPHIL / ABSOLUTE LYMPHOCYTE / ABSOLUTE MONOCYTE / ABSOLUTE SEGMENTED NEUTROPHIL / BASOPHIL / EOSINOPHIL / ERYTHROCYTE COUNT / HEMATOCRIT / HEMOGLOBIN / LEUKOCYTE COUNT / LYMPHOCYTE / MEAN CORPUSCULAR HEMOGLOBIN / MEAN CORPUSCULAR HEMOGLOBIN CONCENTRATION / MEAN CORPUSCULAR VOLUME / MONOCYTE / NEUTROPHIL / NUCLEATED RED BLOOD CELLS / PLATELET COUNT: tissue Blood; for ALANINE AMINOTRANSFERASE / ALBUMIN / ALKALINE PHOSPHATASE / ASPARTATE AMINOTRANSFERASE / BLOOD UREA NITROGEN / CARBON DIOXIDE / CHLORIDE / CHOLESTEROL / CREATINE PHOSPHOKINASE / CREATININE / GLUCOSE / LACTATE DEHYDROGENASE / LIPASE / PHOSPHORUS / POTASSIUM / SODIUM / TOTAL BILIRUBIN / TOTAL PROTEIN / URIC ACID: tissue Plasma
[1] = 0 mg/kg, 72 h, dose level Control, time 3 day
[2] = 0 mg/kg, 120 h, dose level Control, time 5 day
[3] = 10 mg/kg, 72 h, dose level Low, time 3 day

COCCOC(=O)C1=C(C)NC(C)=C(C(=O)OC(C)C)C1c1cccc([N+](=O)[O-])c1 (centres undefined) [NIMODIPINE]
ABSOLUTE BASOPHIL [1]: 0 CELLS/uL
ABSOLUTE EOSINOPHIL [1]: 0 CELLS/uL
ABSOLUTE LYMPHOCYTE [1]: 9244.83 CELLS/uL
ABSOLUTE MONOCYTE [1]: 102 CELLS/uL
ABSOLUTE SEGMENTED NEUTROPHIL [1]: 869.83 CELLS/uL
BASOPHIL [1]: 0%
EOSINOPHIL [1]: 0%
ERYTHROCYTE COUNT [1]: 5.43 x10E6/uL
HEMATOCRIT [1]: 34.03%
HEMOGLOBIN [1]: 13.27 G/DL
LEUKOCYTE COUNT [1]: 10.22 x10E3/uL
LYMPHOCYTE [1]: 90.33%
MEAN CORPUSCULAR HEMOGLOBIN [1]: 24.48 pg
MEAN CORPUSCULAR HEMOGLOBIN CONCENTRATION [1]: 39.03 G/DL
MEAN CORPUSCULAR VOLUME [1]: 62.75 fL
MONOCYTE [1]: 1%
NEUTROPHIL [1]: 8.67%
NUCLEATED RED BLOOD CELLS [1]: 0.17 /100WBC
PLATELET COUNT [1]: 989 x10E3/uL
ALANINE AMINOTRANSFERASE [1]: 77 u/L
ALBUMIN [1]: 3.97 G/DL
ALKALINE PHOSPHATASE [1]: 464.83 u/L
ASPARTATE AMINOTRANSFERASE [1]: 89.83 u/L
BLOOD UREA NITROGEN [1]: 12.17 mg/dL
CARBON DIOXIDE [1]: 34.17 mmol/L
CHLORIDE [1]: 98.33 MEQ/L
CHOLESTEROL [1]: 75.17 mg/dL
CREATINE PHOSPHOKINASE [1]: 367.67 u/L
CREATININE [1]: 0.16 mg/dL
GLUCOSE [1]: 142.67 mg/dL
LACTATE DEHYDROGENASE [1]: 139.33 u/L
LIPASE [1]: 9.5 u/L
PHOSPHORUS [1]: 10.85 mg/dL
POTASSIUM [1]: 6.38 MEQ/L
SODIUM [1]: 143.2 MEQ/L
TOTAL BILIRUBIN [1]: 0.2 mg/dL
TOTAL PROTEIN [1]: 5.77 G/DL
URIC ACID [1]: 0.7 mg/dL
ABSOLUTE BASOPHIL [2]: 0 CELLS/uL
ABSOLUTE EOSINOPHIL [2]: 0 CELLS/uL
ABSOLUTE LYMPHOCYTE [2]: 8295.33 CELLS/uL
ABSOLUTE MONOCYTE [2]: 84.67 CELLS/uL
ABSOLUTE SEGMENTED NEUTROPHIL [2]: 970 CELLS/uL
BASOPHIL [2]: 0%
EOSINOPHIL [2]: 0%
ERYTHROCYTE COUNT [2]: 5.74 x10E6/uL
HEMATOCRIT [2]: 36.22%
HEMOGLOBIN [2]: 13.85 G/DL
LEUKOCYTE COUNT [2]: 9.35 x10E3/uL
LYMPHOCYTE [2]: 88.67%
MEAN CORPUSCULAR HEMOGLOBIN [2]: 24.13 pg
MEAN CORPUSCULAR HEMOGLOBIN CONCENTRATION [2]: 38.25 G/DL
MEAN CORPUSCULAR VOLUME [2]: 63.08 fL
MONOCYTE [2]: 1%
NEUTROPHIL [2]: 10.33%
NUCLEATED RED BLOOD CELLS [2]: 0.17 /100WBC
PLATELET COUNT [2]: 883.83 x10E3/uL
ALANINE AMINOTRANSFERASE [2]: 64.5 u/L
ALBUMIN [2]: 4.12 G/DL
ALKALINE PHOSPHATASE [2]: 425.67 u/L
ASPARTATE AMINOTRANSFERASE [2]: 88.5 u/L
BLOOD UREA NITROGEN [2]: 14.17 mg/dL
CARBON DIOXIDE [2]: 30.5 mmol/L
CHLORIDE [2]: 100.33 MEQ/L
CHOLESTEROL [2]: 55.33 mg/dL
CREATINE PHOSPHOKINASE [2]: 287.17 u/L
CREATININE [2]: 0.2 mg/dL
GLUCOSE [2]: 162.83 mg/dL
LACTATE DEHYDROGENASE [2]: 111.33 u/L
LIPASE [2]: 10.5 u/L
PHOSPHORUS [2]: 10.32 mg/dL
POTASSIUM [2]: 5.13 MEQ/L
SODIUM [2]: 143.93 MEQ/L
TOTAL BILIRUBIN [2]: 0.17 mg/dL
TOTAL PROTEIN [2]: 5.9 G/DL
URIC ACID [2]: 0.77 mg/dL
ABSOLUTE BASOPHIL [3]: 0 CELLS/uL
ABSOLUTE EOSINOPHIL [3]: 0 CELLS/uL
ABSOLUTE LYMPHOCYTE [3]: 10257 CELLS/uL
ABSOLUTE MONOCYTE [3]: 34.33 CELLS/uL
ABSOLUTE SEGMENTED NEUTROPHIL [3]: 975.33 CELLS/uL
BASOPHIL [3]: 0%
EOSINOPHIL [3]: 0%
ERYTHROCYTE COUNT [3]: 5.25 x10E6/uL
HEMATOCRIT [3]: 33.27%
HEMOGLOBIN [3]: 13.03 G/DL
LEUKOCYTE COUNT [3]: 11.27 x10E3/uL
LYMPHOCYTE [3]: 92%
MEAN CORPUSCULAR HEMOGLOBIN [3]: 24.83 pg
MEAN CORPUSCULAR HEMOGLOBIN CONCENTRATION [3]: 39.2 G/DL
MEAN CORPUSCULAR VOLUME [3]: 63.37 fL
MONOCYTE [3]: 0.33%
NEUTROPHIL [3]: 7.67%
NUCLEATED RED BLOOD CELLS [3]: 0 /100WBC
PLATELET COUNT [3]: 1138 x10E3/uL
ALANINE AMINOTRANSFERASE [3]: 72.67 u/L
ALBUMIN [3]: 3.87 G/DL
ALKALINE PHOSPHATASE [3]: 445.67 u/L
ASPARTATE AMINOTRANSFERASE [3]: 88 u/L
BLOOD UREA NITROGEN [3]: 12 mg/dL
CARBON DIOXIDE [3]: 33 mmol/L
CHLORIDE [3]: 99 MEQ/L
CHOLESTEROL [3]: 69.67 mg/dL
CREATINE PHOSPHOKINASE [3]: 468 u/L
CREATININE [3]: 0.2 mg/dL
GLUCOSE [3]: 153.33 mg/dL
LACTATE DEHYDROGENASE [3]: 135.67 u/L
LIPASE [3]: 10.67 u/L
PHOSPHORUS [3]: 11.03 mg/dL
POTASSIUM [3]: 6.2 MEQ/L
SODIUM [3]: 144.23 MEQ/L
TOTAL BILIRUBIN [3]: 0.17 mg/dL
TOTAL PROTEIN [3]: 5.57 G/DL
URIC ACID [3]: 0.7 mg/dL
